Reference: US9593145B2, “Secondary structure stabilized NMDA receptor modulators and uses thereof” (Northwestern University, priority 2010, dated 2017)
“Also recorded” adds a separate entry of the source. Like-named read-outs stand apart in the source and are kept apart here. Values belong to the compound of their own block, whether it stands above or below them. Residues, ends and D or L forms follow the SMILES beside them.

Assays:
[1] = system: Glutamate, AMPA; test: binding assay, Glutamate, AMPA; parameters: species or system rat; settings: 10 μM
Text: (§1) Table B depicts the results of binding assays against various targets with AK51: […]

[2] = target: T1, NMDA receptor (Rattus norvegicus, UniProt P35439); test: NMDA receptor gated single neuron conductance (INMDA) in hippocampal CA1 pyramidal neurons; format: cell-based; settings: for relative potency / magnitude as enhancer of INMDA among the tested compounds: low concentrations (50-100 nM)
T1 construct: in hippocampal CAI pyramidal neurons; from tissue; host or cells: in vitro hippocampal slices, CA1 pyramidal neurons
Text: (§2) The effects of the three compounds were examined on 1) NMDA receptor gated single neuron conductance (INMDA) in hippocampal CAI pyramidal neurons and 2) the magnitude of long term potentiation (LTP) and long term depression (LTD) at Schaffer collateral CA1 synapses, in in vitro hippocampal slices.

[3] = system: Glutamate, NMDA, Phencyclidine; test: binding assay, Glutamate, NMDA, Phencyclidine; parameters: species or system rat; settings: 10 μM
Text: as §1

[4] = system: Schaffer collateral CA1 synapses; test: long term depression (LTD) at Schaffer collateral CA1 synapses, in vitro hippocampal slices; format: cell-based; settings: 1 μM; low frequency stimulus
Text: as §2

[5] = system: Glutamate, Non-Selective; test: binding assay, Glutamate, Non-Selective; parameters: species or system rat; settings: 10 μM
Text: as §1

[6] = target: Potassium Channel hERG (Homo sapiens, UniProt Q12809); test: binding assay, Potassium Channel hERG
Text: as §1

[7] = system: Glycine, Strychnine-Sensitive; test: binding assay, Glycine, Strychnine-Sensitive; parameters: species or system rat; settings: 10 μM
Text: as §1

[8] = system: Glutamate, Kainate; test: binding assay, Glutamate, Kainate; parameters: species or system rat; settings: 10 μM
Text: as §1

[9] = system: Glutamate, NMDA, Agonism; test: binding assay, Glutamate, NMDA, Agonism; parameters: species or system rat; settings: 10 μM
Text: as §1

[10] = system: Glutamate, NMDA, Polyamine; test: binding assay, Glutamate, NMDA, Polyamine; parameters: species or system rat; settings: 10 μM
Text: as §1

[11] = alternating T-maze learning task; format: in vivo, rat; settings: 60 min before testing
Protocol: Male 3 month old Fisher 344 X Brown Norway F1 cross rats (FBNF1) were used for this study. The t-maze was constructed with arms (45 cm long×10 cm wide×10 cm high) made of black Plexiglas enclosing the maze. Two plastic bottle caps, lined with wire mesh, were secured to the end of each goal arm in which the food reward (Cheerios, 100 mg/piece) was placed. Before the start of training, animals were gradually deprived of food to approximately 85% of their free feeding weight. On three successive days before the start of training, animals were habituated to the t-maze with food located throughout the maze. […] On the subsequent testing day, animals were given injections of AK51(0.3, 1, 3, 10, 30 mg/kg p.o.), or DMSO vehicle (1 mg/ml; Sigma, Saint Louis Mo.) in a blind manner via gastric gavage (4″, 16-ga; Braintree Scientific, Braintree Mass.) 60 min prior to the start of testing (n=8-9 per group. On the first trial of testing, both arms were baited with food and for the subsequent 20 trials only alternating choices (opposite of the animal's previous choice) were rewarded (˜30 sec inter-trial interval). The number of trials to criterion (5 consecutive correct choices) was calculated for each animal. Data was analyzed by ANOVA followed by Fisher PLSD post hoc tests comparing individual drug doses to vehicle (α=0.05). […]

[12] = system: Schaffer collateral CA1 synapses; test: long term potentiation (LTP) at Schaffer collateral CA1 synapses, in vitro hippocampal slices; format: cell-based; settings: for effect on magnitude of LTP: high frequency stimulus
Text: as §2

[13] = system: Schaffer collateral CA1 synapses; settings: cited from earlier work
[14] = system: Schaffer collateral CA1 synapses; settings: cited from earlier work; remark: listed apart in the source
[15] = target: T1, NMDA receptor; settings: cited from earlier work

Sequence of Potassium Channel hERG (Q12809 whole entry): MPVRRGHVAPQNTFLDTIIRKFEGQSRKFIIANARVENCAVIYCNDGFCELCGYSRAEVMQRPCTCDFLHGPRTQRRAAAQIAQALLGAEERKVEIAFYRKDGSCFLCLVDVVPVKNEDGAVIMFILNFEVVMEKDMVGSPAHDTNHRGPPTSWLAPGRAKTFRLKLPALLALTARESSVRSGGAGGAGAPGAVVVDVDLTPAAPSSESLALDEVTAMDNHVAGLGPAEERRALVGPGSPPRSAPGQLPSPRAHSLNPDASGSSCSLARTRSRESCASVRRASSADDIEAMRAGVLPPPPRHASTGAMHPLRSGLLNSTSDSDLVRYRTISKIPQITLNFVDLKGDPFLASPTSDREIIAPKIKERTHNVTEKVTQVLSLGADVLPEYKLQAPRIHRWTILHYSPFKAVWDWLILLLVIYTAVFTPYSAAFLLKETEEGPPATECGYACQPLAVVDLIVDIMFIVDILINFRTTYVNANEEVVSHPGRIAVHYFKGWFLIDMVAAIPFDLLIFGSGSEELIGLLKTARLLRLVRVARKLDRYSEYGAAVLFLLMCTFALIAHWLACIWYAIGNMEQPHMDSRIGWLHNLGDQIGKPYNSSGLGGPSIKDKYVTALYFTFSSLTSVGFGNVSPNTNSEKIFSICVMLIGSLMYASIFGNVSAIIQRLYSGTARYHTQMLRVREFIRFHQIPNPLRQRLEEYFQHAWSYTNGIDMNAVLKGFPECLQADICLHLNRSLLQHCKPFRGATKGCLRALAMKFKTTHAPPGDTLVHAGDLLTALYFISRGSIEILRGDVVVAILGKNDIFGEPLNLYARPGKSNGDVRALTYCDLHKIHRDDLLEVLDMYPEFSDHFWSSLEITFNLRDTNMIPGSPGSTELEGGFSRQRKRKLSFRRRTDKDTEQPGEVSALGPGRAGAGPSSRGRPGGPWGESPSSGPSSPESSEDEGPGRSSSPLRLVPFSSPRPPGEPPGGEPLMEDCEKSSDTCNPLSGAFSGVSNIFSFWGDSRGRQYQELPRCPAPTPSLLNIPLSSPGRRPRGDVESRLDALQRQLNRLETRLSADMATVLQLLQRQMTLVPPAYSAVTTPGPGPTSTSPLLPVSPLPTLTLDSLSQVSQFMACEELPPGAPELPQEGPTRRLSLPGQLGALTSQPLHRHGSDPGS

% Inhibition [1]: −8%
effect on single shock evoked INMDA (NMDA e.p.s.c.s) ([2]; 1 μM): enhancement
effect on single shock evoked INMDA (NMDA e.p.s.c.s) ([2]; 1 μM, listed as NRX-10,051): enhanced
effect on NMDA current (NMDA receptor-gated current, whole-cell recording) ([2]; FIG. 4, 100 nM and 1 μM, 20 min bath application): enhances
% Inhibition [3]: −5%
% Inhibition [5]: −10%
% Inhibition [7]: 4%
% Inhibition [8]: −13%
% Inhibition [9]: 27%
% Inhibition [10]: −14%
Compound: O=C1NCC12CCCN2 (stereo not drawn) [AK51]
effect on single shock evoked INMDA (NMDA e.p.s.c.s) ([2]; 100 nM, listed as NRX-10,051): enhanced; also recorded: marked enhancement
relative potency / magnitude as enhancer of INMDA among the tested compounds [2]: less potency than compound B; also recorded: smaller in magnitude
effect on LTD [4]: not altering
inhibition at 10 µM [6]: 3%
learning behavior in the T-maze test ([11]; 1.0 mg/kg by mouth, P<0.001): statistically significant enhancement
learning behavior in the T-maze test ([11]; 3.0 mg/kg by mouth, P<0.01): statistically significant enhancement
effect on magnitude of LTP ([12]; 100 nM): potentiate
effect on magnitude of LTP ([12]; 1 μM): potentiate
effect on magnitude of LTP ([12]; 1 μM, listed as NRX-10,051): doubled
effect on LTP ([12]; FIG. 4, 100 nM and 1 μM bath application): enhances

effect on single shock evoked INMDA (NMDA e.p.s.c.s) ([2]; 100 nM): only a mild enhancement
effect on single shock evoked INMDA (NMDA e.p.s.c.s) ([2]; 100 nM, listed as AK52): enhancement
effect on single shock evoked INMDA (NMDA e.p.s.c.s) ([2]; 1 μM): significant reduction
effect on single shock evoked INMDA (NMDA e.p.s.c.s) ([2]; 1 μM, listed as AK52): marked reduction
relative potency / magnitude as enhancer of INMDA among the tested compounds [2]: weakest enhancer
Compound: CC(O)C(NC(=O)OCc1ccccc1)C(=O)N1CC2(CCCN2C(=O)OCc2ccccc2)C1=O (stereo not drawn) [AK-52]
effect on LTD [4]: without altering; also recorded: did not affect
effect on magnitude of LTP ([12]; 100 nM): enhancement of LTP similar in magnitude to compound B and AK-51
effect on magnitude of LTP ([12]; 1 μM): slight, but significant, reduction
effect on induction / magnitude of LTP ([12]; concentration not given): selectively enhances

Compound: C[C@@H](O)[C@H](N)C(=O)N1CCC[C@H]1C(=O)N1CCC[C@H]1C(=O)N[C@H](C(N)=O)[C@@H](C)O [GLYX-13] (H-TPPT-NH2)
effect on LTD ([13]; 100 μM): no longer affected
effect on LTD ([13]; low concentration 1-10 μM): reducing
effect on LTP ([14]; 100 μM): reducing
effect on LTP ([14]; low concentration 1-10 μM): enhancement
effect on burst INMDA ([15]; 100 μM): reducing
effect on burst-activated INMDA ([15]; low concentration 1-10 μM): enhancement
effect on single pulse evoked INMDA ([15]; low concentration 1-10 μM): reducing
